Data: US20080194407A1, “High nitrogen containing chelate compositions suitable for plant delivery” (priority 2007, published 2008)

Tests used:
Golden Delicious apples [1] = assay: Golden Delicious apple foliar calcium study: bitterpit and culls; format: in vivo, apple trees; conditions: apples harvested and stored; 4 foliar applications, 14 day interval
Protocol: A study was conducted with Golden Delicious apples. […] As a secondary aspect of this study, the leaves and fruit were analyzed to see if the source of calcium could affect calcium retention in the plant tissues.
(§1) A block of mature apple trees was divided into 4 sections.
(§2) The amino acids in the calcium chelate were glycine, valine, leucine, tryptophan, isoleucine, lysine, aspartic acid, alanine, and arginine. All treatments were made on the same day. The applications began with the first cover spray and continued from there every 14 days for 4 applications. The leaves were collected from a fruiting spur located at a 45 degree angle from the spray rig and into the tree canopy 3 feet. Samples were collected and sent for analysis. Apples were also collected on the same day from the same location as the leaves. They also were sent for analysis of the fruit flesh. The orchard was then harvested and placed in storage.
It is noted that absorption of calcium into the plant from a foliar spray is only part of what the plant needs. The calcium source must be able to be retained by the plant after absorption and then be translocated and enter into metabolic activities as needed.

Golden Delicious apples [2] = assay: Golden Delicious apple foliar calcium study: Ca analysis of leaves and fruit; format: in vivo, apple trees; conditions: 4 foliar applications, 14 day interval; for Apple Ca: apple fruit flesh; for Leaf Ca: apple leaves from fruiting spur
Protocol: A study was conducted with Golden Delicious apples. Calcium is effective in reducing bitterpit in apples, and the present study was initially designed to determine which source of calcium, described below, had the greatest impact on reducing bitterpit. As a secondary aspect of this study, the leaves and fruit were analyzed to see if the source of calcium could affect calcium retention in the plant tissues.
as §1, §2

corn (maze) plants [3] = assay: Greenhouse foliar study in corn: plant growth as dry matter; format: in vivo; conditions: 400 ppm Fe foliar spray twice
Protocol: A greenhouse foliar study was conducted in which 12 inch corn (maze) plants were sprayed with a solution that contained 400 ppm Fe as FeSO4, Fe EDTA, or Fe high nitrogen amino acid chelate with and without the addition of urea and ammonium nitrate. The high nitrogen amino acids were lysine, histidine, cysteine, tryptophan, aspartic acid, alanine, and glycine. The urea and ammonium nitrate were formulated as an admixture and not reacted to the Fe sources. […] These same treatments were repeated one week later. Three weeks following the last spray, all of the plants were harvested and the roots separated from the stalks. Each sample was dried for 24 hours at 75° C., then weighed for dry matter, and the Fe concentrations determined by plasma emission spectrophotometry. […] Greater Fe retention also results in greater plant growth as measured by dry matter.

corn (maze) plants [4] = assay: Greenhouse foliar study in corn: Fe concentration by plasma emission spectrophotometry; format: in vivo; conditions: 400 ppm Fe foliar spray twice, harvest three weeks after last spray
Protocol: A greenhouse foliar study was conducted in which 12 inch corn (maze) plants were sprayed with a solution that contained 400 ppm Fe as FeSO4, Fe EDTA, or Fe high nitrogen amino acid chelate with and without the addition of urea and ammonium nitrate. The high nitrogen amino acids were lysine, histidine, cysteine, tryptophan, aspartic acid, alanine, and glycine. The urea and ammonium nitrate were formulated as an admixture and not reacted to the Fe sources. […] These same treatments were repeated one week later. Three weeks following the last spray, all of the plants were harvested and the roots separated from the stalks. Each sample was dried for 24 hours at 75° C., then weighed for dry matter, and the Fe concentrations determined by plasma emission spectrophotometry.

oranges = assay: Orange orchard foliar zinc study: fruit production and quality; format: in vivo, orange trees; conditions: equivalent zinc
Protocol: A study was conducted in oranges in which the application of zinc nitrate was compared to a zinc mixed ligand amino acid chelate. The mixed ligands included arginine, lysine, histidine, leucine, tryptophan, aspartic acid, alanine, and glycine. Specifically, a 12 year old orchard containing 193 trees per acre was evaluated. The trees were divided into 2 groups. One group was sprayed with a zinc nitrate treatment, and the other group was sprayed with a zinc mixed ligand amino acid chelate treatment. The treatments were applied by a sprayer that sprays 535 gallons of liquid per acre.
Each tree was sprayed twice during the study, a first time at 90% petal drop and a second time 14 days later. The zinc nitrate was applied at 49 ounces per acre and the amino acid chelate at 66 ounces per acre. The amount of zinc applied to each group was equivalent.
Ten trees from each group were selected at random and the oranges picked from those trees by hand.

[5] = 0 ppm N from urea and ammonium nitrate
[6] = 500 ppm N from urea and ammonium nitrate
[7] = 1000 ppm N urea and ammonium nitrate

SMILES	percent of bitterpit in the culls (Golden Delicious apples [1]) [%]	percent of culls (Golden Delicious apples [1]) [%]	Apple Ca (Golden Delicious apples [2]) [ppm]	Leaf Ca (Golden Delicious apples [2]) [%]	Dry Matter (corn (maze) plants [3]; [5]) [g/pot]	Dry Matter (corn (maze) plants [3]; [6]) [g/pot]	Dry Matter (corn (maze) plants [3]; [7]) [g/pot]	Fe in Leaves (corn (maze) plants [4]; [5]) [ppm^a Fe ppm Fe]	Fe in Leaves (corn (maze) plants [4]; [6]) [ppm^a Fe ppm Fe]	Fe in Leaves (corn (maze) plants [4]; [7]) [ppm^a Fe ppm Fe]	further results
O=[N+]([O-])[O-].O=[N+]([O-])[O-].[Ca+2] [Ca Nitrate, calcium nitrate]	20	34	190	2.37	–	–	–	–	–	–	–
[O]=[Ca] [Ca Oxide, calcium oxide]	25	34	148	2.15	–	–	–	–	–	–	–
O=S(=O)([O-])[O-].[Fe+2] [FeSO4]	–	–	–	–	13.23	15.73	14.82	48	53	63	–
[Ca+2].[Cl-].[Cl-] [Ca Chloride, calcium chloride]	26	36	138	1.70	–	–	–	–	–	–	–
O=C([O-])CN(CCN(CC(=O)[O-])CC(=O)[O-])CC(=O)[O-].[Fe+3] [Fe EDTA]	–	–	–	–	14.12	15.08	11.24	47	56	69	–
O=[N+]([O-])[O-].O=[N+]([O-])[O-].[Zn+2] [Zn Nitrate, zinc nitrate]	–	–	–	–	–	–	–	–	–	–	% Acid (oranges; oranges, sprayed twice): 1.05%; % Brix (oranges; oranges, sprayed twice): 12.2%; % Juice (oranges; oranges, sprayed twice): 57.2%; Weight of oranges/tree (oranges; sprayed twice (90% petal drop and 14 days later), ten trees per group): 95.11 lbs
